Activity calls are given as the source filed them.
Assays:
[1] = target: Voltage-gated inwardly rectifying potassium channel KCNH2 (Homo sapiens, UniProt Q12809); conditions: Potency;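 also: confirmatory quantitative high-throughput screen measuring inhibition of hERG channel activity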
Vero = Vero cell cytotoxicity, cytotoxicity control for flavivirus capping enzyme inhibitors (AID 588742); type: functional; conditions: Chlorocebus sabaeus
Genome polyprotein = Genome polyprotein (dengue virus type 2, UniProt P29990); experiment: Dengue-2 NS5 methyltransferase inhibitors, primary screen, biochemical, confirmation dose response (AID 588689); type: functional
Sequence of Genome polyprotein (P29990 2492-3391 limits assumed): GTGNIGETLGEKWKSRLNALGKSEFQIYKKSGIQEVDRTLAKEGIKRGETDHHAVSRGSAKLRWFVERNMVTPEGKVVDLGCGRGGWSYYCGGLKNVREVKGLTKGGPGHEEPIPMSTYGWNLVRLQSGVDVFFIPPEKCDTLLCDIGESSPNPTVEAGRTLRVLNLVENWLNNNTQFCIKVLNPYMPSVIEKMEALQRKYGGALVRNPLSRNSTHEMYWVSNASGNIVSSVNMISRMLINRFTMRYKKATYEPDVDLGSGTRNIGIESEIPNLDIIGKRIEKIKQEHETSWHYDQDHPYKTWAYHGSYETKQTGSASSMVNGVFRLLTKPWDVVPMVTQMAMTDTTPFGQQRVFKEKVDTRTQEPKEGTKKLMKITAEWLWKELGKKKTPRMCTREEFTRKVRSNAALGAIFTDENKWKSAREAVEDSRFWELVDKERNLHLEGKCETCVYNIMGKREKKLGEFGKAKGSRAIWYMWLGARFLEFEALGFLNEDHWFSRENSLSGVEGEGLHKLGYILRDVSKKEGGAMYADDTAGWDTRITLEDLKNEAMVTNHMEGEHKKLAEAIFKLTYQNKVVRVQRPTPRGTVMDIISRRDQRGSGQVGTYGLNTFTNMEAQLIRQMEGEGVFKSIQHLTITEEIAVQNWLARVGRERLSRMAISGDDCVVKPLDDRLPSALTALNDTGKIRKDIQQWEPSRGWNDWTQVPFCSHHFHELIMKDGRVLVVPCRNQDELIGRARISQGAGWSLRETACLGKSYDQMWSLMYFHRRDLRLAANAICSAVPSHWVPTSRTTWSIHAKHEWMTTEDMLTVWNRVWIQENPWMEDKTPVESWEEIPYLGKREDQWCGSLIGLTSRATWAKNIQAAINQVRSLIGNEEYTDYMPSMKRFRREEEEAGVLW

[2] = target: Photoreceptor-specific nuclear receptor (Homo sapiens, UniProt Q9Y5X4); type: functional, cell-based;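 also: CHO-S cells with Gal4-NCOR and VP16-NR2E3 two-hybrid luciferase reporter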
Sequence of Photoreceptor-specific nuclear receptor (Q9Y5X4 whole entry, the tested form may be a part): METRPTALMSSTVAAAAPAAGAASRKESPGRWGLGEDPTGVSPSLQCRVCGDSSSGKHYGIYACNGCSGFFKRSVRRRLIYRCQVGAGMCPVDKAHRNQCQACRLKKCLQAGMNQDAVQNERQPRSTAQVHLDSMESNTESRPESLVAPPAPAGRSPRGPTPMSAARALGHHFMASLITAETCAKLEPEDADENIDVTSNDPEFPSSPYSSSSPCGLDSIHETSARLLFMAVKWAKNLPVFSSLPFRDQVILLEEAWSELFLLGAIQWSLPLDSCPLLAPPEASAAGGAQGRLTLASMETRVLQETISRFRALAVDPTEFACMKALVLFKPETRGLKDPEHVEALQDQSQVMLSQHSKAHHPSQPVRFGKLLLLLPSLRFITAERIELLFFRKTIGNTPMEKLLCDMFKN

Escherichia coli [3] = experiment: microbe, parasite or virus in culture
[4] = target: T1, Short transient receptor potential channel 4 (Mus musculus, UniProt Q9QUQ5); experiment: mouse TRPC4 channel inhibitors, dose response, cell-based, HEK293 TRPC4/mu-opioid, Fluo-4 calcium (AID 434942); type: functional;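 also: potency of inhibitors blocking the TRPC4 calcium response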
T1 sequence (Q9QUQ5 whole entry): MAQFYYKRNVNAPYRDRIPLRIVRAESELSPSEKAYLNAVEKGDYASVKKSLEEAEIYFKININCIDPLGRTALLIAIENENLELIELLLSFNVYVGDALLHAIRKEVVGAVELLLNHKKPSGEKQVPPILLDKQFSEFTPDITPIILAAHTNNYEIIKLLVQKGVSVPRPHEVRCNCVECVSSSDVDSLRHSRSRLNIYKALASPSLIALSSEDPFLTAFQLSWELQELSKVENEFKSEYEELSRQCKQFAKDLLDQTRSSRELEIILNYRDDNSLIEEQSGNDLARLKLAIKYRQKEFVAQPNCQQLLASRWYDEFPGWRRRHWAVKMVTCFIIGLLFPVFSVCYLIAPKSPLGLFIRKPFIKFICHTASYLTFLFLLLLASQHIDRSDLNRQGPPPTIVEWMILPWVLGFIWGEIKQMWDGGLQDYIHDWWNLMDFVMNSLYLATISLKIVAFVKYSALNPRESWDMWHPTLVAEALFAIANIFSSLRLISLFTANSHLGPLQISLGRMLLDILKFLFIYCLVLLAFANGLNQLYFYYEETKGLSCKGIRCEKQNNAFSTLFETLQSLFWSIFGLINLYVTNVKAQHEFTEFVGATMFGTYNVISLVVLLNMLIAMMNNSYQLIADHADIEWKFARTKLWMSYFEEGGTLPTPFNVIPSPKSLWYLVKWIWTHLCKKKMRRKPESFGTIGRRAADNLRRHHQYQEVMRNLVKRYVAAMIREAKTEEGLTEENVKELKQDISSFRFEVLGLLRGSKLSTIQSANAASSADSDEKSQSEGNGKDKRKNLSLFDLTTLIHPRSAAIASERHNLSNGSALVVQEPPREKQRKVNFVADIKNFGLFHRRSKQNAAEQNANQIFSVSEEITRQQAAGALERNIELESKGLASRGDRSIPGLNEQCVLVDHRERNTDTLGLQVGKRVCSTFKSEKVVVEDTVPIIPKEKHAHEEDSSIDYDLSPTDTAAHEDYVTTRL

Escherichia coli [5] = experiment: microbe, parasite or virus in culture; remark: listed apart in the source
[6] = target: T2, Sentrin-specific protease 7 (Homo sapiens, UniProt Q9BQF6); experiment: SENP7 protease inhibitors, SAR follow-up, biochemical, luminescence (AID 504497); type: functional
T2 sequence (Q9BQF6 whole entry): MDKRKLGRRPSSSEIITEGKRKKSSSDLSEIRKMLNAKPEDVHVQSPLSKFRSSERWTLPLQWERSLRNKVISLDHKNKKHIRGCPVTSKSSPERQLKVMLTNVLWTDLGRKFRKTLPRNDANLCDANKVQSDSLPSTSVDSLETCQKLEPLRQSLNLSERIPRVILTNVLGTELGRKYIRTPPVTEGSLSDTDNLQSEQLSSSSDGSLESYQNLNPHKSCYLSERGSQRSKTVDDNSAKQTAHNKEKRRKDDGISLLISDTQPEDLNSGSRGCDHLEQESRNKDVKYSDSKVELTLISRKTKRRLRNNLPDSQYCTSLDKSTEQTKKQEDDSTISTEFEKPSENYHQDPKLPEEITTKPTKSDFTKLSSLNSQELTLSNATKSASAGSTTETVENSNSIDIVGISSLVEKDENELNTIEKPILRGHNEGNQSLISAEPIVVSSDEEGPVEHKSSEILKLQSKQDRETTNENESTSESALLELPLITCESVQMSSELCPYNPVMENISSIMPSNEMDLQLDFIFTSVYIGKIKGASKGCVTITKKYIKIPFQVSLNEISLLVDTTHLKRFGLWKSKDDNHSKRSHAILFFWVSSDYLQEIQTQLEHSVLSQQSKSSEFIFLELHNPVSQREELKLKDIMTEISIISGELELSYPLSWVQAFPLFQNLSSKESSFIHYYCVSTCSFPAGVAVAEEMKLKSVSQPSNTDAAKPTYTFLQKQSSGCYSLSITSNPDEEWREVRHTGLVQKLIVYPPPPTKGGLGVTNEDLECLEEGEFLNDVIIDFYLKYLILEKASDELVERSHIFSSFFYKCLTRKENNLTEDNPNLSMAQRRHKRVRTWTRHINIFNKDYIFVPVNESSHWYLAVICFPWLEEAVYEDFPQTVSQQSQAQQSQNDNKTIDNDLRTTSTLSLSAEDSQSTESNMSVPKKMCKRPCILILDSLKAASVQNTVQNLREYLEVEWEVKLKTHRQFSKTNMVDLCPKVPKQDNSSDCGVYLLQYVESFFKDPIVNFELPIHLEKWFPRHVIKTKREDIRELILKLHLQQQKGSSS

Caspase-3 = target: T3, Caspase-3 (Homo sapiens, UniProt P42574); experiment: SAR Analysis of small molecule inhibitors of Sentrin-specific proteases (SENPs) using a Caspase-3 Selectivity assay. [Related pubchem assays (depositor defined):AID2540, AID2599, AID434973, AID489001]; type: functional
T3 sequence (P42574 whole entry): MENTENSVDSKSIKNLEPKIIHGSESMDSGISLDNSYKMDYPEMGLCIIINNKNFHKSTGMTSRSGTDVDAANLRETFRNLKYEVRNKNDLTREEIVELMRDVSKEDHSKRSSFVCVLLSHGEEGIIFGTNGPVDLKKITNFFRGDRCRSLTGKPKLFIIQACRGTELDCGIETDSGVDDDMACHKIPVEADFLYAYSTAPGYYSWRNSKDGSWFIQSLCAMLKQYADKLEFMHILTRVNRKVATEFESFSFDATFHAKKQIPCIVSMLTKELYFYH

[7] = target: T4, Sentrin-specific protease 8 (Homo sapiens, UniProt Q96LD8); experiment: SENP8 protease inhibitors, SAR follow-up, biochemical, luminescence (AID 504501); type: functional
T4 sequence (Q96LD8 whole entry): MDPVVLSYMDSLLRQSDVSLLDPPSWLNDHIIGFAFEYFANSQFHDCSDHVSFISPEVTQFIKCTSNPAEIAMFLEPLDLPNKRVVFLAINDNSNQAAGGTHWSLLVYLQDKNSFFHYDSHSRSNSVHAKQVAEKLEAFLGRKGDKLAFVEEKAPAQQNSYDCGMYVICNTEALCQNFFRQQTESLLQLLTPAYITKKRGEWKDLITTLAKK

[8] = target: T5, Sentrin-specific protease 6 (Homo sapiens, UniProt Q9GZR1); experiment: SAR Analysis of small molecule inhibitors of Sentrin-specific protease 6 (SENP6) using a Luminescent assay. [Related pubchem assays (depositor defined):AID2582, AID2599]; type: functional
T5 sequence (Q9GZR1 whole entry): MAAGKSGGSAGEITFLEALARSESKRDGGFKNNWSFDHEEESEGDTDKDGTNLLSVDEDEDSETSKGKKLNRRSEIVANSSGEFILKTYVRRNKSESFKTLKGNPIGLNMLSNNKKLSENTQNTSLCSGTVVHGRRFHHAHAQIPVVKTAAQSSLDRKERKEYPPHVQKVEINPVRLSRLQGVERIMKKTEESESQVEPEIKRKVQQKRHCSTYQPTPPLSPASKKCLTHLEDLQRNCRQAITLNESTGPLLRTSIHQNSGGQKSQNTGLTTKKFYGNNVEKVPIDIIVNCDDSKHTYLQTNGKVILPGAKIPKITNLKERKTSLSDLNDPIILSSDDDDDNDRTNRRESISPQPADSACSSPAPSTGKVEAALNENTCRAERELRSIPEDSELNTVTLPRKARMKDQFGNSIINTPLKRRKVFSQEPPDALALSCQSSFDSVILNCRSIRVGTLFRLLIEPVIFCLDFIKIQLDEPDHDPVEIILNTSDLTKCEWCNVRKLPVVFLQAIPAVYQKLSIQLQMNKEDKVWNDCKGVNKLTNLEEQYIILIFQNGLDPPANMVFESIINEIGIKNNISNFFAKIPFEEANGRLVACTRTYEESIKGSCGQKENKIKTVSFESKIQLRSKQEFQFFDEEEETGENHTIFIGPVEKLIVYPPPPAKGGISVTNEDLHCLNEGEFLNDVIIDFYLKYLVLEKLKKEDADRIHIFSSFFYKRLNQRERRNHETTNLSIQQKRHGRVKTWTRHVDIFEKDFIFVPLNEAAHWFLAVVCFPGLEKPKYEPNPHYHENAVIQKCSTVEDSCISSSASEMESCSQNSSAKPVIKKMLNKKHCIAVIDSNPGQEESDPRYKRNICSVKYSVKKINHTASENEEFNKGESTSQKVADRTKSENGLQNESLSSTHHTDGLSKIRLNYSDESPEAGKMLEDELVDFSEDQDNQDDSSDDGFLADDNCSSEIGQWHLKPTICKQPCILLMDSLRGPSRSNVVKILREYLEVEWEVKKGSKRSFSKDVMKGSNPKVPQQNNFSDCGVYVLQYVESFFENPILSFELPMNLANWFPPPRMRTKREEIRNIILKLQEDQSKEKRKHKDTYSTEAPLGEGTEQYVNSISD

[9] = target: DNA dC->dU-editing enzyme APOBEC-3A (Homo sapiens, UniProt P31941); experiment: SAR analysis of small molecule inhibitors of APOBEC3A DNA Deaminase via a fluorescence-based single-stranded DNA deaminase assay.; type: functional; conditions: read-out: IC50_Mean
Sequence of DNA dC->dU-editing enzyme APOBEC-3A (P31941 whole entry): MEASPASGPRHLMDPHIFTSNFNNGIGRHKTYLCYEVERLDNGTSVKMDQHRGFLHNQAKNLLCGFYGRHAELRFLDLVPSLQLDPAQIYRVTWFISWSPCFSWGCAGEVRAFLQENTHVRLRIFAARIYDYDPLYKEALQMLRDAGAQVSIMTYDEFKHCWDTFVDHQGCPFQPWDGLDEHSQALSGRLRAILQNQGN

[10] = target: DNA dC->dU-editing enzyme APOBEC-3G (Homo sapiens, UniProt Q9HC16); experiment: APOBEC3G deaminase inhibitors, SAR follow-up, biochemical, fluorescence, single-stranded DNA substrate (AID 602136); type: functional; conditions: read-out: IC50_Mean
Sequence of DNA dC->dU-editing enzyme APOBEC-3G (Q9HC16 whole entry): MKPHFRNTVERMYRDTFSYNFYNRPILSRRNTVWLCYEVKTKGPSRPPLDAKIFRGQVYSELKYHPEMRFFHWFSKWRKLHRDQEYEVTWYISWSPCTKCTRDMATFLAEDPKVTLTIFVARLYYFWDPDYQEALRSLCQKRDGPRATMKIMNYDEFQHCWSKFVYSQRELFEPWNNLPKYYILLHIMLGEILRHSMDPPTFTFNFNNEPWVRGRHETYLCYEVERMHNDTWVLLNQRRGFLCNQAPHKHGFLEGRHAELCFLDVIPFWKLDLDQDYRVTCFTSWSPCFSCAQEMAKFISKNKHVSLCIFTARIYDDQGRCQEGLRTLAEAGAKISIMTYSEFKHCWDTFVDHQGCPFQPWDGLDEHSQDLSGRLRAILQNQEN

[11] = Luminescence Cell-Based Dose Retest to Confirm Inhibitors of Cancer Stem Cells. [Related pubchem assays (depositor defined):AID2717, AID2721]; type: functional; conditions: Homo sapiens
[12] = target: Heat shock protein HSP 90-alpha (Homo sapiens, UniProt P07900); type: functional, organism-based

Sequence of Voltage-gated inwardly rectifying potassium channel KCNH2 (Q12809 whole entry): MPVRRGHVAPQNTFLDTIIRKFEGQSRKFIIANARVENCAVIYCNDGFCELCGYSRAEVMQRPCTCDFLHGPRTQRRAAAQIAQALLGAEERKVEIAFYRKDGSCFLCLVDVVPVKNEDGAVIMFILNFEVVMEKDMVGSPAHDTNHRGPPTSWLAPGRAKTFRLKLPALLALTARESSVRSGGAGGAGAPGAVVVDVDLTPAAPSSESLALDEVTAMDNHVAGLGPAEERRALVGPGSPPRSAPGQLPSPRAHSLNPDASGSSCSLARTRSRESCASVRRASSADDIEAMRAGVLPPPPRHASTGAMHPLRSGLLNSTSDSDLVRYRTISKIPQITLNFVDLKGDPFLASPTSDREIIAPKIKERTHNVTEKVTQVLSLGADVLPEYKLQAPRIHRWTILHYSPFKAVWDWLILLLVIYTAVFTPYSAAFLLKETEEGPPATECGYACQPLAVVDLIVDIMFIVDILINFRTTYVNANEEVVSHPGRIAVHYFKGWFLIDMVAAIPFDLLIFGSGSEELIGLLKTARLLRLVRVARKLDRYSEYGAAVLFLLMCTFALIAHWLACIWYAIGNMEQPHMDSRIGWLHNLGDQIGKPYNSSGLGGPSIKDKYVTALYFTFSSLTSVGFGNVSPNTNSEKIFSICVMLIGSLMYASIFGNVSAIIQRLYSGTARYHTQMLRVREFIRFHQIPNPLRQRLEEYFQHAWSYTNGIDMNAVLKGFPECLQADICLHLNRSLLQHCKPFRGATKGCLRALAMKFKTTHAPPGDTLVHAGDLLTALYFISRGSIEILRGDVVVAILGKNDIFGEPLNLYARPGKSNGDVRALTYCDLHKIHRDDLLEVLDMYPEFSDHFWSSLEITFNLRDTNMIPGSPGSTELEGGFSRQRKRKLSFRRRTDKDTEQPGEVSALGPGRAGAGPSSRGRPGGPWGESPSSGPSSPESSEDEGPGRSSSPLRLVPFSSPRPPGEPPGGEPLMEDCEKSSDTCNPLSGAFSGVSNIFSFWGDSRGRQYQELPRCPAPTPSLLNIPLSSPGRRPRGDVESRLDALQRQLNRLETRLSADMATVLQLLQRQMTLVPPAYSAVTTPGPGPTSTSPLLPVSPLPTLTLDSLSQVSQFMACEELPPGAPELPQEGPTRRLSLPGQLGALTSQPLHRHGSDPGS

With Cc1sc2ccccc2c1CC1=NCCN1 the AC50 [1] was 35.5 µM (inconclusive).
With Cc1ccc(S(=O)(=O)N2[C@@H](c3ccc(Cl)c(Cl)c3)C(C(=O)O)=C[C@H]2CC2CCCC2)cc1 the CC50 (Vero) was > 40 µM (active), the IC50 (Genome polyprotein) was 43.4 µM (active) and the IC50 [2] was 6.21 µM (active).
In the case of OCC1(Cc2ccc(Cl)cc2)CCN(Cc2ccccc2F)CC1, the AC50 (Escherichia coli [3]) is reported as 88.9 µM (active), the EC50 [4] is reported as 5.96 µM (active) and the AC50 (Escherichia coli [5]) is reported as 21.9 µM (active).
In the case of O=C(Nc1nc2c(Cl)cccc2s1)C1COc2ccccc2O1 (stereo not given), the IC50 [6] is reported as 79.7 µM (active), the IC50 (Caspase-3) is reported as > 99 µM (inactive) and the IC50 [7] is reported as > 99 µM (inactive). For the same compound, the IC50 [8] was > 99 µM (inactive).
In the case of O=C(Nc1nc2ccc(Cl)cc2s1)c1cc2ccccc2o1, the IC50 [6] is reported as > 99 µM (inactive), the IC50 (Caspase-3) is reported as > 99 µM (inactive) and the IC50 [7] is reported as > 99 µM (inactive). The IC50 [8] was > 99 µM (inactive).
For Cc1nc2sc3c(c2c2nncn12)CCCC3, the IC50 [9] was > 99 µM (inactive) and the IC50 [10] was > 99 µM (inactive).
With CC[C@@H]1Cc2cc(O)ccc2C2=C1c1ccc(O)cc1C[C@H]2CC the AC50 [1] was 25.1 µM (inconclusive), the AC50 [11] was 2.36 µM (active) and the AC50 [12] was 6.32 µM (active).

Source: ChEMBL document CHEMBL1201862, “PubChem BioAssay data set” (2004)
